For data set [1] the following is noted: pharmacologic testing; cited from earlier work.
For data set [2], the system named is rat. Briefly: Rat forced swim test (antidepressant screening). Format: in vivo.
For data set [3] the following is noted: in vivo, cited from earlier work.
Data set [4] concerns diazepam-withdrawn animals. The settings on record: cited from earlier work.
For data set [5] the following is noted: Johansson et al. 1971; cited from earlier work.
For data set [6], the system named is patients undergoing diazepam-withdrawal. The conditions noted are these: human, in vivo; cited from earlier work.

For the compound `c1cnc(N2CCNCC2)nc1` [Example 1-PP, 1-(2-pyrimidinyl)piperazine], in data set [1], the “anxiolytic potency relative to buspirone” value is 20-25%. For the same compound, in data set [2] (systemic administration of 1-PP), the “blockade of activity of intracerebral buspirone in forced swim test” value was “blocked”. In addition, the “elimination (in words)” value in data set [3] is given as “much slower elimination”. In data set [4] (diazepam-naive subjects), the “effect on social interaction” value was “had not shown any effect”. Also, in data set [4] (diazepam-withdrawn animals), the “effect in social interaction paradigm” value was “anxiogenic effect”.
`C=CCc1ccccc1OCC(O)CNC(C)C` (stereo not shown) [alprenolol]: the “metabolism in controlled/extended release form vs conventional tablets (in words)” value in data set [5] is “more complete when it was administered in a controlled/extended release form than in conventional tablets”.
Take `O=C1CC2(CCCC2)CC(=O)N1CCCCN1CCN(c2ncccn2)CC1` [Buspirone, 8-[4-[4-(2-pyrimidinyl)1-piperazinyl]butyl]-8-azaspiro(4,5)-decane-7,9-dione]: the “treatment of patients undergoing diazepam-withdrawal” value in data set [6] is recorded as “failed to adequately treat patients undergoing diazepam-withdrawal”. The “activity in rat forced swim test” value was “active” in data set [2] (given intracerebrally) and “inactive” in data set [2] (given systemically). Further, the biological half-life in data set [3] (human) was 2-11 hours.

Values taken from patent US5431922A (Bristol-Myers Squibb Company, priority 1993, dated 1995).
